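Cells were grown in 96-well plates and exposed to each compound for 48 hours at five concentrations; endpoints were interpolated linearly between bracketing concentrations, or set to the highest concentration if not reached. Abbreviation: GI50, concentration required for 50% inhibition of growth. TGI is the concentration that stops growth completely.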
Assays:
Assay in all cases: NCI anticancer screen, dose series, 48 h
IGROV1 ovarian = tested on: IGROV1 ovarian
CCRF-CEM leukemia = tested on: CCRF-CEM leukemia
HL-60(TB) leukemia = tested on: HL-60(TB) leukemia
SK-MEL-5 melanoma = tested on: SK-MEL-5 melanoma
SK-MEL-28 melanoma = tested on: SK-MEL-28 melanoma
TK-10 renal = tested on: TK-10 renal
SNB-75 CNS = tested on: SNB-75 CNS
EKVX NSCLC = tested on: EKVX NSCLC
UACC-257 melanoma = tested on: UACC-257 melanoma
LOX IMVI melanoma = tested on: LOX IMVI melanoma
OVCAR-8 ovarian = tested on: OVCAR-8 ovarian
SF-295 CNS = tested on: SF-295 CNS
HOP-62 NSCLC = tested on: HOP-62 NSCLC
SN12C renal = tested on: SN12C renal
UACC-62 melanoma = tested on: UACC-62 melanoma
HCT-15 colon = tested on: HCT-15 colon
RPMI-8226 leukemia = tested on: RPMI-8226 leukemia
T-47D breast = tested on: T-47D breast
MOLT-4 leukemia = tested on: MOLT-4 leukemia
SR leukemia = tested on: SR leukemia
K-562 leukemia = tested on: K-562 leukemia
MDA-N = tested on: MDA-N
HCC-2998 colon = tested on: HCC-2998 colon
A549 NSCLC = tested on: A549 NSCLC
MDA-MB-231 breast = tested on: MDA-MB-231 breast
786-0 renal = tested on: 786-0 renal
MCF7 breast = tested on: MCF7 breast
HT29 colon = tested on: HT29 colon
DU-145 prostate = tested on: DU-145 prostate
RXF 393 renal = tested on: RXF 393 renal
KM12 colon = tested on: KM12 colon
NCI-H23 lung = tested on: NCI-H23 lung
CAKI-1 renal = tested on: CAKI-1 renal
SK-OV-3 ovarian = tested on: SK-OV-3 ovarian
MALME-3M melanoma = tested on: MALME-3M melanoma
SF-268 CNS = tested on: SF-268 CNS
PC-3 prostate = tested on: PC-3 prostate
M14 melanoma = tested on: M14 melanoma
SW-620 colon = tested on: SW-620 colon
SK-MEL-2 melanoma = tested on: SK-MEL-2 melanoma
BT-549 breast = tested on: BT-549 breast
HOP-92 NSCLC = tested on: HOP-92 NSCLC
COLO 205 colon = tested on: COLO 205 colon
NCI/ADR-RES ovarian = tested on: NCI/ADR-RES ovarian
MDA-MB-435 = tested on: MDA-MB-435
HCT-116 colon = tested on: HCT-116 colon
ACHN renal = tested on: ACHN renal
HS 578T breast = tested on: HS 578T breast
A498 renal = tested on: A498 renal
OVCAR-3 ovarian = tested on: OVCAR-3 ovarian
UO-31 renal = tested on: UO-31 renal
NCI-H522 lung = tested on: NCI-H522 lung
SF-539 CNS = tested on: SF-539 CNS
NCI-H226 lung = tested on: NCI-H226 lung
OVCAR-5 ovarian = tested on: OVCAR-5 ovarian
SNB-19 CNS = tested on: SNB-19 CNS
OVCAR-4 ovarian = tested on: OVCAR-4 ovarian
NCI-H460 lung = tested on: NCI-H460 lung
U251 CNS = tested on: U251 CNS

CSc1nc(C)c(CCOC(C)=O)c(N=P(c2ccccc2)(c2ccccc2)c2ccccc2)n1
TGI (IGROV1 ovarian): > 10 µM | TGI (CCRF-CEM leukemia): > 10 µM | TGI (HL-60(TB) leukemia): > 10 µM | TGI (SK-MEL-5 melanoma): > 10 µM | TGI (SK-MEL-28 melanoma): > 10 µM | TGI (TK-10 renal): > 10 µM | TGI (SNB-75 CNS): > 10 µM | TGI (EKVX NSCLC): > 10 µM | TGI (UACC-257 melanoma): > 10 µM | TGI (LOX IMVI melanoma): > 10 µM | TGI (OVCAR-8 ovarian): > 10 µM | TGI (SF-295 CNS): > 10 µM | TGI (HOP-62 NSCLC): > 10 µM | TGI (SN12C renal): > 10 µM | TGI (UACC-62 melanoma): > 10 µM | TGI (HCT-15 colon): > 10 µM | TGI (RPMI-8226 leukemia): > 10 µM | TGI (T-47D breast): > 10 µM | TGI (MOLT-4 leukemia): 6.43 µM | TGI (SR leukemia): 7.83 µM | TGI (K-562 leukemia): > 10 µM | TGI (MDA-N): > 10 µM | TGI (HCC-2998 colon): > 10 µM | TGI (A549 NSCLC): > 10 µM | TGI (MDA-MB-231 breast): > 10 µM | TGI (786-0 renal): > 10 µM | TGI (MCF7 breast): > 10 µM | TGI (HT29 colon): > 10 µM | TGI (DU-145 prostate): > 10 µM | TGI (RXF 393 renal): > 10 µM | TGI (KM12 colon): > 10 µM | TGI (NCI-H23 lung): > 10 µM | TGI (CAKI-1 renal): > 10 µM | TGI (SK-OV-3 ovarian): > 10 µM | TGI (MALME-3M melanoma): > 10 µM | TGI (SF-268 CNS): > 10 µM | TGI (PC-3 prostate): 9.37 µM | TGI (M14 melanoma): > 10 µM | TGI (SW-620 colon): > 10 µM

CC1=NN(c2nc(N)nc(/C=C\c3ccccc3)n2)C(C)(C)C1
GI50 (SK-MEL-2 melanoma): 11.2 µM | TGI (SK-MEL-2 melanoma): 30.6 µM | GI50 (BT-549 breast): 5.09 µM | TGI (BT-549 breast): 19.1 µM | GI50 (IGROV1 ovarian): 8.99 µM | TGI (IGROV1 ovarian): 24 µM | GI50 (CCRF-CEM leukemia): 2.99 µM | TGI (CCRF-CEM leukemia): 34.7 µM | GI50 (HOP-92 NSCLC): 19.5 µM | TGI (HOP-92 NSCLC): 39.5 µM | GI50 (HL-60(TB) leukemia): 10.8 µM | TGI (HL-60(TB) leukemia): 39.5 µM | GI50 (SK-MEL-5 melanoma): 16 µM | TGI (SK-MEL-5 melanoma): 32.3 µM | GI50 (SK-MEL-28 melanoma): 9.41 µM | TGI (SK-MEL-28 melanoma): 22.3 µM | GI50 (TK-10 renal): 7.76 µM | TGI (TK-10 renal): 22.2 µM | GI50 (SNB-75 CNS): 6.36 µM | TGI (SNB-75 CNS): 25.6 µM | GI50 (COLO 205 colon): 2.84 µM | TGI (COLO 205 colon): 14 µM | GI50 (EKVX NSCLC): 12.5 µM | TGI (EKVX NSCLC): 45.8 µM | GI50 (UACC-257 melanoma): 5.73 µM | TGI (UACC-257 melanoma): 20.1 µM | GI50 (LOX IMVI melanoma): 1.99 µM | TGI (LOX IMVI melanoma): 15 µM | GI50 (OVCAR-8 ovarian): 5.33 µM | TGI (OVCAR-8 ovarian): 39 µM | GI50 (NCI/ADR-RES ovarian): 3.75 µM | TGI (NCI/ADR-RES ovarian): 24.7 µM | GI50 (SF-295 CNS): 11.7 µM | TGI (SF-295 CNS): 30.5 µM | GI50 (HOP-62 NSCLC): 14.9 µM | TGI (HOP-62 NSCLC): 29.7 µM | GI50 (SN12C renal): 13.1 µM | TGI (SN12C renal): 26.6 µM | GI50 (MDA-MB-435): 1.97 µM | TGI (MDA-MB-435): 7.13 µM | GI50 (HCT-116 colon): 2.76 µM | TGI (HCT-116 colon): 14.2 µM | GI50 (UACC-62 melanoma): 3.88 µM | TGI (UACC-62 melanoma): 16.4 µM | GI50 (ACHN renal): 9.46 µM | TGI (ACHN renal): 28.4 µM | GI50 (HCT-15 colon): 3.27 µM | TGI (HCT-15 colon): 44.7 µM | GI50 (RPMI-8226 leukemia): 3.02 µM | TGI (RPMI-8226 leukemia): 15 µM | GI50 (T-47D breast): 2.5 µM | TGI (T-47D breast): 15.1 µM | GI50 (HS 578T breast): 13.5 µM | TGI (HS 578T breast): 77.5 µM | GI50 (A498 renal): 5.58 µM | TGI (A498 renal): 20.7 µM | GI50 (OVCAR-3 ovarian): 3.73 µM | TGI (OVCAR-3 ovarian): 16.1 µM | GI50 (UO-31 renal): 13.5 µM | TGI (UO-31 renal): 28.5 µM | GI50 (MOLT-4 leukemia): 13 µM | TGI (MOLT-4 leukemia): 40.7 µM | GI50 (SR leukemia): 6.12 µM | TGI (SR leukemia): 27.8 µM | GI50 (K-562 leukemia): 3.98 µM | TGI (K-562 leukemia): 22.1 µM | GI50 (NCI-H522 lung): 3.14 µM | TGI (NCI-H522 lung): 13.5 µM | GI50 (SF-539 CNS): 6.25 µM | TGI (SF-539 CNS): 22.4 µM | GI50 (HCC-2998 colon): 11.9 µM | TGI (HCC-2998 colon): 26.1 µM | GI50 (A549 NSCLC): 15.8 µM | TGI (A549 NSCLC): 38.3 µM | GI50 (MDA-MB-231 breast): 6.46 µM | TGI (MDA-MB-231 breast): 22.5 µM | GI50 (786-0 renal): 15 µM | TGI (786-0 renal): 29.3 µM | GI50 (MCF7 breast): 8 µM | TGI (MCF7 breast): 25.5 µM | GI50 (NCI-H226 lung): 13.7 µM | TGI (NCI-H226 lung): 28.6 µM | GI50 (HT29 colon): 2.47 µM | TGI (HT29 colon): 14 µM | GI50 (DU-145 prostate): 3.16 µM | TGI (DU-145 prostate): 15.5 µM | GI50 (OVCAR-5 ovarian): 20.7 µM | TGI (OVCAR-5 ovarian): 36.5 µM | GI50 (RXF 393 renal): 5.8 µM | TGI (RXF 393 renal): 20.1 µM | GI50 (KM12 colon): 1.59 µM | TGI (KM12 colon): 10.5 µM | GI50 (NCI-H23 lung): 4.37 µM | TGI (NCI-H23 lung): 18 µM | GI50 (CAKI-1 renal): 15.4 µM | TGI (CAKI-1 renal): 30.9 µM | GI50 (SK-OV-3 ovarian): 6.66 µM | TGI (SK-OV-3 ovarian): 36.1 µM | GI50 (SNB-19 CNS): 20.3 µM | TGI (SNB-19 CNS): 42.9 µM | GI50 (MALME-3M melanoma): 10.7 µM | TGI (MALME-3M melanoma): 29.4 µM | GI50 (OVCAR-4 ovarian): 4.16 µM | TGI (OVCAR-4 ovarian): 16.6 µM | GI50 (SF-268 CNS): 6.1 µM | TGI (SF-268 CNS): 24.4 µM | GI50 (PC-3 prostate): 4.41 µM | TGI (PC-3 prostate): 19.7 µM | GI50 (M14 melanoma): 9.76 µM | TGI (M14 melanoma): 23.7 µM | GI50 (SW-620 colon): 4.48 µM | TGI (SW-620 colon): 44.2 µM | GI50 (NCI-H460 lung): 13.1 µM | TGI (NCI-H460 lung): 34.2 µM | GI50 (U251 CNS): 3.19 µM | TGI (U251 CNS): 28.9 µM

— PubChem BioAssay (NCI)
